In paper PMC3304000 (Bioorganic & medicinal chemistry, 2012):
Converted amounts (≈) assume the structure as drawn. “And” between values parts separate entries of the source, which are not always exact repeats. Identical values can stand only once.

Legend:
[1] = test system: Drug sensitive Mtb clinical strain #1; assay: MIC against clinical Mtb strain in 7H9/glucose/glycerol/BSA/0.05% Tween 80; format: cell-based; details: Mycobacterium tuberculosis
[2] = test system: Drug sensitive Mtb clinical strain #2; assay: as above; format: cell-based; details: Mycobacterium tuberculosis
[3] = Stability in simulated gastric fluid; details: after a 15-min incubation
[4] = In vitro stability in rat liver microsomes; details: after a 15-min incubation
[5] = test system: Mtb H37Rv luxAB luminescence strain; assay: microbe, parasite or virus in culture; format: cell-based; details: Mycobacterium tuberculosis, read-out: LORA MIC (mean ± SD)
[6] = test system: twelve MDR- and XDR-Mtb strains; details: cited from earlier work

In the case of `O=C(OCc1ccccc1)c1coc(-c2ccccc2)n1` [Compound 2], the MIC [1] is reported as 4.4 µM to 8.9 µM and 1.25 µg/mL to 2.5 µg/mL, the MIC [2] is reported as 2.2 to 4.4 µM (≈ 0.614 to 1.23 µg/mL) and the “compound remaining in simulated gastric fluid” value [3] is reported as 0.6%. The “compound remaining in rat liver microsomes” value [4] was 11%.
Work on `O=C(OCc1ccccc1)c1csc(-c2ccccc2)n1` [Compound 5] yielded an MIC [1] of 10 µg/mL (≈ 33.9 µM).
In the case of `Cc1ccn2c(C(=O)OCc3ccccc3)c(-c3ccccc3)nc2c1` [Compound 9, benzyl 7-methyl-2-phenylimidazo[1,2-a]pyridine-3-carboxylate], the MIC [5] is reported as 22 µM (≈ 7.53 µg/mL).
Compound `Cc1ccn2c(C(=O)OCc3ccccc3)c(C)nc2c1` [Compound 11, benzyl 2,7-dimethylimidazo[1,2-a]pyridine-3-carboxylate] has an MIC [1] of less than 0.01 µg/mL.
In the case of `Cc1ccn2c(C(=O)NCc3ccccc3)c(C)nc2c1` [Compound 12, N-benzyl-2,7-dimethylimidazo[1,2-a]pyridine-3-carboxamide], the “MIC against a panel of twelve MDR- and XDR-Mtb strains” value [6] is given as 0.07 to 2.3 µM and the “compound remaining in simulated gastric fluid” value [3] is given as 100%.
For `O=[N+]([O-])c1cn2c(n1)OC[C@@H](OCc1ccc(OC(F)(F)F)cc1)C2` [PA-824, reference compound], the MIC [1] was 0.45 µM to 0.86 µM and 0.16 µg/mL to 0.31 µg/mL.
